Key:
Assay type in all cases: in vivo
[1] = test system: green foxtail (Setaria viridis, SETVI); assay: Post-emerge greenhouse herbicide test, phytotoxicity rating; conditions: 14 days after application, scale 0-100
In short: (§1)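 Compounds in acetone with 0.25% v/v non-ionic surfactant were track-sprayed at 187 l/ha over plants at the 2-3 leaf stage, at 63 to 1000 g ai/ha. Pots were bottom-watered. Injury was scored visually 14 days later on a 0-100 scale, where 0 is no damage and 100 is complete plant death.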

[2] = test system: velvetleaf (Abutilon theophrasti, ABUTH); assay: as above; conditions: 14 days after application, scale 0-100
In short: as §1

[3] = test system: large crabgrass (Digitaria sanguinalis, DIGSA); assay: as above; conditions: 14 days after application, scale 0-100
In short: as §1

[4] = test system: ivyleaf morningglory (Ipomoea hederacea, IPOHE); assay: as above; conditions: 14 days after application, scale 0-100
In short: as §1

[5] = test system: Johnsongrass (Sorghum halepense, SORHA); assay: as above; conditions: 14 days after application, scale 0-100
In short: as §1

[6] = test system: barnyardgrass (Echinochloa crusgalli, ECHCG); assay: as above; conditions: 14 days after application, scale 0-100
In short: as §1

[7] = test system: lambsquarters (Chenopodium album, CHEAL); assay: as above; conditions: 14 days after application, scale 0-100
In short: as §1

[8] = test system: redroot pigweed (Amaranthus retroflexus, AMARE); assay: as above; conditions: 14 days after application, scale 0-100
In short: as §1

[9] = test system: sicklepod (Cassia obtusifolia, CASOB); assay: as above; conditions: 14 days after application, scale 0-100
In short: as §1

[10] = test system: common ragweed (Ambrosia artemisiifolia L., AMBEL); assay: as above; conditions: 14 days after application, scale 0-100
In short: as §1

[11] = test system: field corn (Zea mays L., var. Dekalb 535, CORN); assay: Pre-emerge greenhouse test, crop damage rating; conditions: 14 days after application, rating scale 0-100
In short: (§2)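 Seeds sown in sandy loam mix one day before track-sprayer application of compounds in acetone at 125–1000 g ai/ha (187 l/ha), then surface-watered to incorporate and bottom-watered. Visual rating 14 days after application on a 0–100 scale (0 = no damage, 100 = all plants dead).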

[12] = test system: upland rice (Oryza sp., var.Tebonnet, RICE); assay: Pre-emerge greenhouse test, crop damage rating; conditions: 14 days after application, rating scale 0-100
In short: as §2

[13] = test system: soybean (Glycine max L., var. Pella 86, SOY); assay: Pre-emerge greenhouse test, crop damage rating; parameters: key to SOY crop damage rating: 0 = no damage, 100 = complete death of all plants; conditions: 14 days after application, rating scale 0-100
In short: as §2

[14] = test system: green foxtail (Setaria viridis, SETVI); assay: Pre-emerge greenhouse herbicide test, phytotoxicity rating; conditions: 14 days after application, rating scale 0-100
In short: as §2

[15] = test system: velvetleaf (Abutilon theophrasti, ABUTH); assay: as above; conditions: 14 days after application, rating scale 0-100
In short: as §2

[16] = test system: common ragweed (Ambrosia artemisiifolia L., AMBEL); assay: as above; conditions: 14 days after application, rating scale 0-100
In short: as §2

[17] = test system: large crabgrass (Digitaria sanguinalis, DIGSA); assay: as above; conditions: 14 days after application, rating scale 0-100
In short: as §2

[18] = test system: ivyleaf morningglory (Ipomoea hederacea, IPOHE); assay: as above; conditions: 14 days after application, rating scale 0-100
In short: as §2

[19] = test system: Johnsongrass (Sorghum halepense, SORHA); assay: as above; conditions: 14 days after application, rating scale 0-100
In short: as §2

[20] = test system: barnyardgrass (Echinochloa crusgalli, ECHCG); assay: as above; conditions: 14 days after application, rating scale 0-100
In short: as §2

[21] = test system: lambsquarters (Chenopodium album, CHEAL); assay: as above; conditions: 14 days after application, rating scale 0-100
In short: as §2

[22] = test system: redroot pigweed (Amaranthus retroflexus, AMARE); assay: as above; conditions: 14 days after application, rating scale 0-100
In short: as §2

[23] = test system: sicklepod (Cassia obtusifolia, CASOB); assay: as above; conditions: 14 days after application, rating scale 0-100
In short: as §2

[24] = test system: field corn (Zea mays L., var. Dekalb 535, CORN); assay: Post-emerge greenhouse test, crop damage rating; conditions: 14 days after application, scale 0-100
In short: as §1

[25] = test system: upland rice (Oryza sp., var.Tebonnet, RICE); assay: Post-emerge greenhouse test, crop damage rating; conditions: 14 days after application, scale 0-100
In short: as §1

[26] = test system: soybean (Glycine max L., var. Pella 86, SOY); assay: Post-emerge greenhouse test, crop damage rating; parameters: key to crop damage rating SOY: 0-100 scale: 0 = no damage, 100 = complete death of all plants; conditions: 14 days after application, scale 0-100
In short: as §1

O=c1n(-c2cc(Oc3cccc(F)n3)c(Cl)cc2F)c(=S)n2n1CCCC2 [Compound 8-25]
phytotoxicity rating SETVI ([1]; rate 63 g ai/ha): 80
phytotoxicity rating SETVI ([1]; rate 500 g ai/ha): 95
phytotoxicity rating ABUTH ([2]; rate 63 g ai/ha): 100
phytotoxicity rating ABUTH ([2]; rate 500 g ai/ha): 100
phytotoxicity rating DIGSA ([3]; rate 63 g ai/ha): 10
phytotoxicity rating DIGSA ([3]; rate 500 g ai/ha): 40
phytotoxicity rating IPOHE ([4]; rate 63 g ai/ha): 100
phytotoxicity rating IPOHE ([4]; rate 500 g ai/ha): 100
phytotoxicity rating SORHA ([5]; rate 63 g ai/ha): 40
phytotoxicity rating SORHA ([5]; rate 500 g ai/ha): 60
phytotoxicity rating ECHCG ([6]; rate 63 g ai/ha): 20
phytotoxicity rating ECHCG ([6]; rate 500 g ai/ha): 65
phytotoxicity rating CHEAL ([7]; rate 63 g ai/ha): 90
phytotoxicity rating CHEAL ([7]; rate 500 g ai/ha): 100
phytotoxicity rating AMARE ([8]; rate 63 g ai/ha): 100
phytotoxicity rating AMARE ([8]; rate 500 g ai/ha): 100
phytotoxicity rating CASOB ([9]; rate 63 g ai/ha): 70
phytotoxicity rating CASOB ([9]; rate 500 g ai/ha): 100
phytotoxicity rating AMBEL ([10]; rate 63 g ai/ha): 90
phytotoxicity rating AMBEL ([10]; rate 500 g ai/ha): 90
CORN crop damage rating ([11]; Rate 125 g al/ha): 0
CORN crop damage rating ([11]; Rate 500 g al/ha): 40
RICE crop damage rating ([12]; Rate 125 g al/ha): 15
RICE crop damage rating ([12]; Rate 500 g al/ha): 70
SOY crop damage rating ([13]; Rate 125 g al/ha): 0
SOY crop damage rating ([13]; Rate 500 g al/ha): 20
SETVI phytotoxicity rating ([14]; Rate 125 g al/ha): 100
SETVI phytotoxicity rating ([14]; Rate 500 g al/ha): 100
ABUTH phytotoxicity rating ([15]; Rate 125 g al/ha): 100
ABUTH phytotoxicity rating ([15]; Rate 500 g al/ha): 100
AMBEL phytotoxicity rating ([16]; Rate 125 g al/ha): 40
AMBEL phytotoxicity rating ([16]; Rate 500 g al/ha): 90
DIGSA phytotoxicity rating ([17]; Rate 125 g al/ha): 85
DIGSA phytotoxicity rating ([17]; Rate 500 g al/ha): 100
IPOHE phytotoxicity rating ([18]; Rate 125 g al/ha): 20
IPOHE phytotoxicity rating ([18]; Rate 500 g al/ha): 20
SORHA phytotoxicity rating ([19]; Rate 125 g al/ha): 70
SORHA phytotoxicity rating ([19]; Rate 500 g al/ha): 90
ECHCG phytotoxicity rating ([20]; Rate 125 g al/ha): 40
ECHCG phytotoxicity rating ([20]; Rate 500 g al/ha): 100
CHEAL phytotoxicity rating ([21]; Rate 125 g al/ha): 100
CHEAL phytotoxicity rating ([21]; Rate 500 g al/ha): 100
AMARE phytotoxicity rating ([22]; Rate 125 g al/ha): 100
AMARE phytotoxicity rating ([22]; Rate 500 g al/ha): 100
CASOB phytotoxicity rating ([23]; Rate 125 g al/ha): 70
CASOB phytotoxicity rating ([23]; Rate 500 g al/ha): 100
crop damage rating CORN ([24]; rate 63 g ai/ha): 10
crop damage rating CORN ([24]; rate 500 g ai/ha): 25
crop damage rating RICE ([25]; rate 63 g ai/ha): 10
crop damage rating RICE ([25]; rate 500 g ai/ha): 60
crop damage rating SOY ([26]; rate 63 g ai/ha): 70
crop damage rating SOY ([26]; rate 500 g ai/ha): 90

O=c1n(-c2cc(Oc3cccc(Cl)n3)c(Cl)cc2F)c(=S)n2n1CCCC2 [Compound 8-26]
phytotoxicity rating SETVI ([1]; rate 500 g ai/ha): 0
phytotoxicity rating ABUTH ([2]; rate 500 g ai/ha): 0
phytotoxicity rating DIGSA ([3]; rate 500 g ai/ha): 0
phytotoxicity rating IPOHE ([4]; rate 500 g ai/ha): 0
phytotoxicity rating SORHA ([5]; rate 500 g ai/ha): 0
phytotoxicity rating ECHCG ([6]; rate 500 g ai/ha): 0
phytotoxicity rating CHEAL ([7]; rate 500 g ai/ha): 0
phytotoxicity rating AMARE ([8]; rate 500 g ai/ha): 0
phytotoxicity rating CASOB ([9]; rate 500 g ai/ha): 0
phytotoxicity rating AMBEL ([10]; rate 500 g ai/ha): 0
CORN crop damage rating ([11]; Rate 500 g al/ha): 0
RICE crop damage rating ([12]; Rate 500 g al/ha): 0
SOY crop damage rating ([13]; Rate 500 g al/ha): 0
SETVI phytotoxicity rating ([14]; Rate 500 g al/ha): 0
ABUTH phytotoxicity rating ([15]; Rate 500 g al/ha): 0
AMBEL phytotoxicity rating ([16]; Rate 500 g al/ha): 0
DIGSA phytotoxicity rating ([17]; Rate 500 g al/ha): 0
IPOHE phytotoxicity rating ([18]; Rate 500 g al/ha): 0
SORHA phytotoxicity rating ([19]; Rate 500 g al/ha): 0
ECHCG phytotoxicity rating ([20]; Rate 500 g al/ha): 0
CHEAL phytotoxicity rating ([21]; Rate 500 g al/ha): 0
AMARE phytotoxicity rating ([22]; Rate 500 g al/ha): 0
CASOB phytotoxicity rating ([23]; Rate 500 g al/ha): 0
crop damage rating CORN ([24]; rate 500 g ai/ha): 0
crop damage rating RICE ([25]; rate 500 g ai/ha): 0
crop damage rating SOY ([26]; rate 500 g ai/ha): 0
